Test results as given in patent US10597649B2, “Tau protease compositions and methods of use” (Oligomerix, Inc., priority 2011, dated 2020).

Tests used:
Format in all cases: biochemical
tau 4R2N trimer protease = molecular target: T1, tau 4R2N trimer protease (Homo sapiens, UniProt P10636); assay: Peptide assay (tau peptide 335-353, reverse-phase HPLC) used to screen serine protease inhibitors
T1 construct: Stabilization buffer enables production of full length monomer, dimer and trimer for tau protease; made in house; host or cells: E. coli BL21 (DE3) Gold
T1 sequence (P10636 1-441 isoform P10636-8): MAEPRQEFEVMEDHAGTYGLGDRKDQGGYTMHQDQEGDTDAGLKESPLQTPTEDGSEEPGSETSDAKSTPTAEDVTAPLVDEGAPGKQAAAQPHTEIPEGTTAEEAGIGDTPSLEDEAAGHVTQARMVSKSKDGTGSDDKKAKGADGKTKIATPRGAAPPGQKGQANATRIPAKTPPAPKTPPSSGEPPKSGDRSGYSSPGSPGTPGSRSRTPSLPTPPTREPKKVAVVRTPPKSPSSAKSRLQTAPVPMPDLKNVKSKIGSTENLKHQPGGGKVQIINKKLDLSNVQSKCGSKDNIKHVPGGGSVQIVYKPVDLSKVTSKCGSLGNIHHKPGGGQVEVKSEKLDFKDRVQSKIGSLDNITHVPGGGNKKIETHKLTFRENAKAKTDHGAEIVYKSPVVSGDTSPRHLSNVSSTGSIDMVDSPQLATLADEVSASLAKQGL
Text: N-terminal sequencing of fragments using mass spectrometry identified autoproteolytic cut sites. In particular, cutting at the Lys340-Ser341 (340KS341) cut site occurred readily. Therefore, a 19-amino acid peptide corresponding to amino acids 335G to 353L of tau protein was synthesized that contained the KS cut site (340KS341). The reaction was monitored by reverse-phase high-pressure liquid chromatography (HPLC). […] An asterisk marks a non-specific contaminant that was used as a marker. […] 10 μg of tau peptide 335-353 ([…]) (SEQ ID NO:19) was custom synthesized by Genscript (Piscataway, N.J., USA) and 1 mg was dissolved in 1 mL of buffer (25 mM Tris-HCl pH 7.4). […] of peptide was incubated with 11 μg of tau trimer protease in 30 μL buffer 20 hr at 37° C. and analyzed by HPLC [SystemGold® 32Karat™ LC-CE System, Beckman Coulter, Inc., (Indianapolis, Ind.)] using a linear gradient of acetonitrile in 0.1% TFA 0-60% acetonitrile on an analytical C18 column (12.5 cm×2.1 mm, 5 μm, (Supelco, Bellefonte, Pa., USA). 30 μg of peptide was incubated without tau protease as a negative control and analyzed with the same method;
The peptide assay for tau 4R2N trimer activity described in FIG. 5 was used to screen a series of serine protease inhibitors. 1 mM AEBSF was incubated with tau 4R2N trimer for 1 hr at room temperature before addition of the peptide substrate. […] The asterisk indicates an artifactual peak unrelated to the peptide;

Tau 4R2N oligomer ladder = molecular target: T2, Tau 4R2N oligomer ladder (Homo sapiens, UniProt P10636); assay: FP-TAMRA serine hydrolase probe labeling of oligomerized tau 4R2N; conditions: pre-treated with 0, 0.1, 1.0 or 10.0 mM AEBSF for 1 hr; 5 micromolar FP-TAMRA, 4 hrs
T2 construct: Stabilization buffer enables production of full length monomer, dimer and trimer for tau protease; made in house; host or cells: E. coli BL21 (DE3) Gold
T2 sequence (P10636 1-441 isoform P10636-8): as above
Text: Tau 4R2N oligomer ladder was labeled with fluorophosphonate (FP) linked to a fluorescent TAMRA tag (ThermoFisher Scientific), a probe that is specific for active site serines in serine proteases. FP probes specifically label the serines of enzymatically-active serine hydrolases. The serine protease-specific inhibitor, AEBSF, was used in a dose-response study to determine whether tau was being specifically labeled with FP. […] Samples were run without reductant or with reductant as indicated. For labeling, 10 μg of tau 4R2N was labeled with 5 micromolar FP-TAMRA in 10 μL buffer (25 mM Tris-HCl pH 7.4, 150 mM NaCl, 0.5 mM EDTA, 0.1% NP-40, 5% glycerol) for 4 hrs at room temperature in the dark. Samples were pre-treated with 0, 0.1, 1.0, or 10.0 mM AEBSF for 1 hr at room temperature to block the active-site serine before the addition of the FP-TAMRA probe. Samples were divided in half and run with sample buffer with or without reductant as indicated;
4-(2-Aminoethyl)benzenesulfonyl fluoride hydrochloride (AEBSF) was prepared fresh in anhydrous DMSO. (Sigma Chemical Co.) A8456-≥97%, Molecular Weight: 239.69; 9 mg AEBSF/187.2 μL DMSO=200 mM. Serine hydrolase FP probes were equilibrated to room temperature in pouch with desiccant. Serine hydrolase FP probe was dissolved in 100 μL of DMSO to make a 0.1 mM stock solution. Samples were aliquotted in 5-μL/tubes and store in −80° C. freezer. […]

[1] = test system: tau protein from a specimen of Alzheimer's brain; assay: FP-TAMRA labeling of tau immunopurified from AD brain; conditions: AD brain lysate treated with PMSF before 2 μM FP-TAMRA probe
Text: Serine hydrolases include a class of enzymes that include serine proteases. The serine hydrolase superfamily is one of the largest known enzyme families that share a catalytic mechanism that involves a serine nucleophile. Phenylmethanesulfonyl fluoride (PMSF) irreversibly binds to the active site serine of serine hydrolases to inactivate their enzymatic activity and prevents the probe from labeling them. […] Protein was extracted from an AD brain by Dounce homogenization in TPER buffer (ThermoFisher Scientific) with 1 mM EDTA, 1 μg/mL pepstatin A, […] phosphoramidon, phosphatase inhibitor (ThermoFisher Scientific). The lysate was cleared by centrifugation at 10,000×g for 20 min. The supernatant was depleted for biotin using Streptavidin-agarose (ThermoFisher Scientific). A probe specific for active serine hydrolases, fluorophosphonate (FP) labeled with a fluorescent carboxytetramethylrhodamine (TAMRA) tag (ThermoFisher Scientific), was incubated with the lysate at a final concentration of 2 μM. As a control for non-specific labeling, a portion of the lysate was treated with phenylmethanesulfonyl fluoride (PMSF), an irreversible inhibitor of serine hydrolases, including tau protease, before using the FP-TAMRA probe. Biotinylated monoclonal antibody HT7 (ThermoFisher Scientific) was used to capture total tau from the lysate with streptavidin-agarose beads (ThermoFisher Scientific). […]

[2] = Tau protease enzymatic activity of truncated tau peptides (general statement)

For Cl.NCCc1ccc(S(=O)(=O)F)cc1 [AEBSF, 4-(2-Aminoethyl)benzenesulfonyl fluoride hydrochloride], the “inhibition of tau 4R2N trimer protease activity, peptide assay (FIG. 14A)” value (tau 4R2N trimer protease; 1 mM AEBSF, 1 hr at room temperature before peptide substrate) was “inhibited” and the “FP-TAMRA labeling of tau 4R2N” value (Tau 4R2N oligomer ladder) was “inhibited in a dose-dependent manner”.
With O=S(=O)(F)Cc1ccccc1 [PMSF, phenylmethanesulfonyl fluoride] the “inhibition of cleavage of the peptide (FIG. 14E)” value (tau 4R2N trimer protease; 1 mM PMSF (also printed 1 μM), one hr at room temperature before peptide substrate) was “strongly inhibited” and the “FP-TAMRA labeling of immunocaptured protein bands” value [1] was “reduced labeling”.
For “TP-118: 118 amino acid truncated tau peptide, 4R2N 268-385 (SEQ ID NO:2)”, the “tau protease enzymatic activity” value [2] was “retain tau protease enzymatic activity”.
